Laboratory results: ChEMBL document CHEMBL5715939, “Aurora kinase inhibitors: a new class of targeted drugs in cancer” (Clin Lung Cancer, 2006)

Columns and labels:
[1] = target: T1, Aurora kinase C (Homo sapiens, UniProt Q9UQB9); assay: Inhibition of human aurora C
T1 sequence (Q9UQB9 whole entry): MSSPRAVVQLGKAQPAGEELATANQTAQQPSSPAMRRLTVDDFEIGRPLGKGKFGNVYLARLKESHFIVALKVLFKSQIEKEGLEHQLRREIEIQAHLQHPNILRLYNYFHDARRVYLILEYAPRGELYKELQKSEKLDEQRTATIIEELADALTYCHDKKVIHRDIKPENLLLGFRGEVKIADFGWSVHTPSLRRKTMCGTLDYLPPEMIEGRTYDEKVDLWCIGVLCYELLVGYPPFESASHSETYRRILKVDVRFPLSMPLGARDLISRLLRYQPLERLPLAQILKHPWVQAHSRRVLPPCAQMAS

[2] = target: Aurora kinase B (Homo sapiens, UniProt Q96GD4); assay: Inhibition of human aurora B
Chain of Aurora kinase B (Q96GD4 whole entry): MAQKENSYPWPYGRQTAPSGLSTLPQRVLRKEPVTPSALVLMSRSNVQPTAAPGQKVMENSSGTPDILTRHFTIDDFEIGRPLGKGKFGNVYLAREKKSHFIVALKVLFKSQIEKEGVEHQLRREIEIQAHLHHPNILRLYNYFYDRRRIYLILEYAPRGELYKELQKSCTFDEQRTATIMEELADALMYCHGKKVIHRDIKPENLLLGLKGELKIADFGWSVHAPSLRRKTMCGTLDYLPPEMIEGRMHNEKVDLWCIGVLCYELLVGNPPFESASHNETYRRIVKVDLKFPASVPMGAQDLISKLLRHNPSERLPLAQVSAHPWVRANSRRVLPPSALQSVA

[3] = target: T2, Receptor-type tyrosine-protein kinase FLT3 (Homo sapiens, UniProt P36888); assay: Inhibition of human FLT3
T2 sequence (P36888 whole entry): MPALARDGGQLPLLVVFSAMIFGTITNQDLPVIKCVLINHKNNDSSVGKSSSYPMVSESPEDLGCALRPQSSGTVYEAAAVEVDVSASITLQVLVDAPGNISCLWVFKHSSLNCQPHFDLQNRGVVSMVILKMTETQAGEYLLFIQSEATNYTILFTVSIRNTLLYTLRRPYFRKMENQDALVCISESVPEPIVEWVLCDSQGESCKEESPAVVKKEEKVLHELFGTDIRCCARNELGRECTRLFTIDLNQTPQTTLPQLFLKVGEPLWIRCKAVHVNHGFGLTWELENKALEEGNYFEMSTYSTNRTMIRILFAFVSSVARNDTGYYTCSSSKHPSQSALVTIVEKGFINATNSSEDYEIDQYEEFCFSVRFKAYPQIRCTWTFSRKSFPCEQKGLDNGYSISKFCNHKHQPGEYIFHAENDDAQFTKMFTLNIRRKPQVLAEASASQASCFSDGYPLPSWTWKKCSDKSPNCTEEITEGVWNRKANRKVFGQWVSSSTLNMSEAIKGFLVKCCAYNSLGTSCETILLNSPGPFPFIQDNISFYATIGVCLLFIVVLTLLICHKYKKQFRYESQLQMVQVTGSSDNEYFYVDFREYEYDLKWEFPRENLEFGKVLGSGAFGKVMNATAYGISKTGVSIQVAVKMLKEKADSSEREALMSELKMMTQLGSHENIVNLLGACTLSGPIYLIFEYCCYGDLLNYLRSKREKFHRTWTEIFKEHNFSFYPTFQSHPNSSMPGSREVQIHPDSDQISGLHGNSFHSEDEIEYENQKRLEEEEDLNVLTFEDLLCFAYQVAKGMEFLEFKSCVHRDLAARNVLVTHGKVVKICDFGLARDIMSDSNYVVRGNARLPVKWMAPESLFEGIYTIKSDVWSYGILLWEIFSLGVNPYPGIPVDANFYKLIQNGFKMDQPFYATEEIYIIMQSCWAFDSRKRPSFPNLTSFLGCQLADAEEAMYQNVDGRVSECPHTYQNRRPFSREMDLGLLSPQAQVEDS

[4] = Half life in human patient with advanced solid tumors at 0.5 to 12 mg/m2/hr, iv administered by continuous intravenous infusion over 5 days every 4 weeks; type: ADME, organism-based; details: in vivo, dose 0.5-12 mg/m2/hr, time 5 day
[5] = Cmax in plasma of human patient with advanced solid tumors at 0.5 to 12 mg/m2/hr, iv administered by continuous intravenous infusion over 5 days every 4 weeks; type: ADME, organism-based; details: dose 0.5-12 mg/m2/hr, time 5 day

Question: With `CCN(CCCOc1ccc2c(Nc3cc(CC(=O)Nc4cccc(F)c4)n[nH]3)ncnc2c1)CCOP(=O)(O)O` [BARASERTIB] as the molecule, how does the Ki [1] read?
Answer: 17 nM

Question: With `O=C(Nc1c[nH]nc1-c1nc2cc(CN3CCOCC3)ccc2[nH]1)NC1CC1` [AT-9283] as the molecule, how does the IC50 [2] read?
Answer: < 3 nM

Question: Which IC50 [2] does the source give for `CCc1cccc(CC)c1NC(=O)N1Cc2n[nH]c(NC(=O)c3ccc(N4CCN(C)CC4)cc3)c2C1` [PHA-680632] here?
Answer: 35 nM

Question: What about the IC50 [3] of the same molecule?
Answer: 390 nM

Question: Which half-life [4] does the source give for `Cc1cc(Nc2cc(N3CCN(C)CC3)nc(Sc3ccc(NC(=O)C4CC4)cc3)n2)[nH]n1` [TOZASERTIB] here?
Answer: 900 min

Question: And the Cmax [5]?
Answer: 650 nM
